Data published in paper PMC6154558, “Discovery and Biological Evaluation of a Series of Pyrrolo[2,3-b]pyrazines as Novel FGFR Inhibitors” (Molecules : A Journal of Synthetic Chemistry and Natural …, 2017).
Where “and” joins values, the source holds several entries; their conditions need not be identical. Equal values may be shown once.

Legend:
[1] = molecular target: T1, FGFR1 (Homo sapiens, UniProt P11362); assay: ELISA kinase assay, FGFR1; assay type: biochemical; details: for inhibition at 1 µM: 1 μM compound; for IC50: mean ± SD from two separate experiments; for inhibition at 0.01 µM: 0.01 μM compound
T1 construct: purchased Millipore
Description: (§1) The effects of compounds on the activities of indicated (FGFR1 and c-Met) kinases were determined using enzyme-linked immunosorbent assays (ELISAs) with purified recombinant proteins. Briefly, 20 μg/mL poly (Glu, Tyr)4:1 (Sigma, St. Louis, MO, USA) was pre-coated in 96-well plates as a substrate. A 50-μL aliquot of 10 μmol/L ATP solution diluted in kinase reaction buffer (50 mmol/L HEPES (pH 7.4), 50 mmol/L MgCl2, 0.5 mmol/L MnCl2, 0.2 mmol/L Na3VO4, and 1 mmol/L DTT) was added to each well; 1 μL of various concentrations of compounds diluted in 1% DMSO (v/v) (Sigma) were then added to each reaction well. DMSO (1%, v/v) was used as the negative control. The kinase reaction was initiated by the addition of purified tyrosine kinase proteins FGFR1 (Millipore, Darmstadt, Germany) or c-Met (Millipore) diluted in 49 μL of kinase reaction buffer. After incubation for 60 min at 37 °C, the plate was washed three times with phosphate-buffered saline (PBS) containing 0.1% Tween 20 (T-PBS). Anti-phosphotyrosine (PY99) antibody (Sanra Cruz, Dallas, USA) (100 μL; 1:500, diluted in 5 mg/mL bovine serum albumin (BSA) T-PBS) was then added. After a 30-min incubation at 37 °C, the plate was washed three times, and 100 μL horseradish peroxidase-conjugated goat anti-mouse IgG (Calbiochem, Shanghai, China) (1:2000, diluted in 5 mg/mL BSA T-PBS) was added. The plate was then incubated at 37°C for 30 min and washed 3 times. A 100-μL aliquot of a solution containing 0.03% H2O2 and 2 mg/mL o-phenylenediamine in 0.1 mol/L citrate buffer (pH 5.5) was added. The reaction was terminated by the addition of 50 μL of 2 mol/L H2SO4 as the color changed, and the plate was analyzed using a multi-well spectrophotometer (SpectraMAX 190, Molecular Devices, Palo Alto, CA, USA) at 490 nm. […] (1) where IR, A490 and A490control are the inhibition rate, the absorbance value of the tested compound at 490 nm and the absorbance value of the negative control compound at 490 nm, respectively. The IC50 values were calculated from the inhibition curves in two separate experiments.

[2] = molecular target: T2, c-Met (Homo sapiens, UniProt P08581); assay: ELISA kinase assay, c-Met; assay type: biochemical; details: for inhibition at 0.01 µM: 0.01 μM compound; for inhibition at 0.1 µM: 0.1 μM compound; for inhibition at 1 µM: 1 μM compound
T2 construct: purchased Millipore
Description: as §1

[3] = 10 μM compound, mean from two separate experiments

T1 sequence (P11362 22-822): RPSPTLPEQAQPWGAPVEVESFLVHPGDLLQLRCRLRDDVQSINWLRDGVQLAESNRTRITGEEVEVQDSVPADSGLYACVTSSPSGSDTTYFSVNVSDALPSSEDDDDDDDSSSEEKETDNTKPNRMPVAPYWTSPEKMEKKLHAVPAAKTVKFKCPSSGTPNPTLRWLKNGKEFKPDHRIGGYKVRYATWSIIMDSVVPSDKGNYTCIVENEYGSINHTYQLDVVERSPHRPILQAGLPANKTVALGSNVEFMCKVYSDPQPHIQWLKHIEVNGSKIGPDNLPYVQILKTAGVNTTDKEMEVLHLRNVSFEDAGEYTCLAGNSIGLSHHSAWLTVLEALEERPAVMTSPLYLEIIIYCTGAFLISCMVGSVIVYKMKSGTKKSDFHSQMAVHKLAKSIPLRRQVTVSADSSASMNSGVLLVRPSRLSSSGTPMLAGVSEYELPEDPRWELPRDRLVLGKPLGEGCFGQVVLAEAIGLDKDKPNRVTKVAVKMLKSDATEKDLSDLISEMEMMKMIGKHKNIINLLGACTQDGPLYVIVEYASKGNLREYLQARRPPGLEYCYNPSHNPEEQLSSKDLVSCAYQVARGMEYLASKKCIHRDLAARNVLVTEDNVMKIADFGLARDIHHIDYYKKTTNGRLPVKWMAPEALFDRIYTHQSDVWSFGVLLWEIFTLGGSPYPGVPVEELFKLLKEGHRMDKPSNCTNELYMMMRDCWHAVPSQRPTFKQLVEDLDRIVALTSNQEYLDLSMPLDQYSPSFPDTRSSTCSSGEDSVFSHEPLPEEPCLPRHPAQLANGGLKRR
T2 sequence (P08581 25-1390): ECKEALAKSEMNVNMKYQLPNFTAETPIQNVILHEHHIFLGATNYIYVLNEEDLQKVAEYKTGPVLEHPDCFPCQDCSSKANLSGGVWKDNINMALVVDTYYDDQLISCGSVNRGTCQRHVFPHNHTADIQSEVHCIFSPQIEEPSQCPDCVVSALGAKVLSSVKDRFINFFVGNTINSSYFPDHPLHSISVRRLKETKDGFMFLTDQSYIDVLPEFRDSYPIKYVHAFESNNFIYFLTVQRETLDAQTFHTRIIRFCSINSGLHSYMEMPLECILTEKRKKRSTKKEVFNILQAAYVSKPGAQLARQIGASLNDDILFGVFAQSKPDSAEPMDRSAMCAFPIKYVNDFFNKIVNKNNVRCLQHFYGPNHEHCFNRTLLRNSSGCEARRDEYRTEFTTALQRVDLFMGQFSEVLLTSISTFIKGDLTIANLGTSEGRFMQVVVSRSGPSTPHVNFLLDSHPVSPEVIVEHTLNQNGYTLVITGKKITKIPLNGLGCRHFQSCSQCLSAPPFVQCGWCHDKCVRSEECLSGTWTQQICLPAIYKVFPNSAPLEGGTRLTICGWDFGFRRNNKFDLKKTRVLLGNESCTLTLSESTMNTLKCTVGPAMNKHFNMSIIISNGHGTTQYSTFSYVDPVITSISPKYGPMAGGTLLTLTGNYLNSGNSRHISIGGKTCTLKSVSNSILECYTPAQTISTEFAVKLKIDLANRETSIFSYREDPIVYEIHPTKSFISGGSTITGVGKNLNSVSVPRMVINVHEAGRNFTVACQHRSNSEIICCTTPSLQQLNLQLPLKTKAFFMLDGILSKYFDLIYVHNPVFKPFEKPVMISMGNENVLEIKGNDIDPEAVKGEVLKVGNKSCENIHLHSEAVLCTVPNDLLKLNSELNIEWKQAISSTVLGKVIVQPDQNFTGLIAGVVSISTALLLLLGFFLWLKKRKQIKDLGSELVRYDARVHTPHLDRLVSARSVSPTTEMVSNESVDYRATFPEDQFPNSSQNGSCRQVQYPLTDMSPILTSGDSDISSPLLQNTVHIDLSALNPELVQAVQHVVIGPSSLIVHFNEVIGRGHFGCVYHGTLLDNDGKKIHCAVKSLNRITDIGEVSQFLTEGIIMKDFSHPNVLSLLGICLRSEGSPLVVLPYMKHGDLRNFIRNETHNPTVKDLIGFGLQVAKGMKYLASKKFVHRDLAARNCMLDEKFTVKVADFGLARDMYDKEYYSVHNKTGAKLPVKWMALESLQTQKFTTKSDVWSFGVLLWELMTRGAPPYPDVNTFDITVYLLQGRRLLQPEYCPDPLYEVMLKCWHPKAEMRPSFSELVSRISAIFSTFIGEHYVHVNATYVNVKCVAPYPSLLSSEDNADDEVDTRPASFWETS

Structure (SMILES)	inhibition at 1 µM [1] [%]	inhibition at 10 µM [1, 3] [%]	inhibition at 0.1 µM ([1]; 0.1 μM compound) [%]	further results
Cn1cc(-c2cnc3cnn(S(=O)(=O)c4ccccc4)c3c2)cn1 [Compound 4, 6-(1-Methyl-1H-pyrazol-4-yl)-1-(phenylsulfonyl)-1H-pyrazolo[4,3-b]pyridine]	47.1	87.8		
Cn1cc(-c2cnc3cnn(S(=O)(=O)Cc4ccccc4)c3c2)cn1 [Compound 5, 1-(Benzylsulfonyl)-6-(1-methyl-1H-pyrazol-4-yl)-1H-pyrazolo[4,3-b]pyridine]		46.1		
Cn1cc(-c2cnc3cnn(Cc4ccccc4)c3c2)cn1 [Compound 6, 1-Benzyl-6-(1-methyl-1H-pyrazol-4-yl)-1H-pyrazolo[4,3-b]pyridine]		53		
Cn1cc(-c2cnc3cnn(CCc4ccccc4)c3c2)cn1 [Compound 7, 6-(1-Methyl-1H-pyrazol-4-yl)-1-phenethyl-1H-pyrazolo[4,3-b]pyridine]		55.9		
Cn1cc(-c2cnc3ccn(S(=O)(=O)c4ccccc4)c3c2)cn1 [Compound 8, 6-(1-Methyl-1H-pyrazol-4-yl)-1-(phenylsulfonyl)-1H-pyrrolo[3,2-b]pyridine]	31.6	80.4		
Cn1cc(-c2cnc3ccn(S(=O)(=O)c4ccccc4)c3n2)cn1 [Compound 9, 3-(1-Methyl-1H-pyrazol-4-yl)-5-(phenylsulfonyl)-5H-pyrrolo[2,3-b]pyrazine]		93.3	46	FGFR1 Inhibition (%) ([1]; 10 μM compound, mean from two separate experiments, 10 µM): 90.5%
Cc1ncc(-c2cnn(C)c2)cc1NS(=O)(=O)c1ccccc1 [Compound 10, N-(2-Methyl-5-(1-methyl-1H-pyrazol-4-yl)pyridin-3-yl)benzenesulfonamide]	15.4	50		
Cn1cc(-c2cnc3ccn(S(=O)(=O)C4CCCC4)c3n2)cn1 [Compound 11, 5-(Cyclopentylsulfonyl)-3-(1-methyl-1H-pyrazol-4-yl)-5H-pyrrolo[2,3-b]pyrazine]	20.8	34.7	26.8	
Cn1cc(-c2cnc3ccn(S(=O)(=O)C4CCCCC4)c3n2)cn1 [Compound 12, 5-(Cyclohexylsulfonyl)-3-(1-methyl-1H-pyrazol-4-yl)-5H-pyrrolo[2,3-b]pyrazine]	24.1	53.3	29.4	
Cn1cc(-c2cnc3ccn(S(=O)(=O)c4ccccc4C#N)c3n2)cn1 [Compound 13, 2-((3-(1-Methyl-1H-pyrazol-4-yl)-5H-pyrrolo[2,3-b]pyrazin-5-yl)sulfonyl)benzonitrile]	32.6	59.7	40.3	
Cn1cc(-c2cnc3ccn(S(=O)(=O)c4ccc(Cl)cc4)c3n2)cn1 [Compound 14, 5-((4-Chlorophenyl)sulfonyl)-3-(1-methyl-1H-pyrazol-4-yl)-5H-pyrrolo[2,3-b]pyrazine]	27.2	45.2	22	
Cn1cc(-c2cnc3ccn(S(=O)(=O)c4ccc(F)cc4F)c3n2)cn1 [Compound 15, 5-((2,4-Difluorophenyl)sulfonyl)-3-(1-methyl-1H-pyrazol-4-yl)-5H-pyrrolo[2,3-b]pyrazine]	31.2	55.6	23.6	
Cn1cc(-c2cnc3ccn(S(=O)(=O)c4ccc(Cl)c(Cl)c4)c3n2)cn1 [Compound 16, 5-((3,4-Dichlorophenyl)sulfonyl)-3-(1-methyl-1H-pyrazol-4-yl)-5H-pyrrolo[2,3-b]pyrazine]	34.8	74.5	13.6	
Cn1cc(-c2cnc3ccn(S(=O)(=O)c4cccc([N+](=O)[O-])c4)c3n2)cn1 [Compound 17, 3-(1-Methyl-1H-pyrazol-4-yl)-5-((3-nitrophenyl)sulfonyl)-5H-pyrrolo[2,3-b]pyrazine]	76.4	92.1	61.1	inhibition at 0.01 µM [2]: -5.4%; inhibition at 0.1 µM [2]: -1.5%; inhibition at 1 µM [2]: 30.6%; IC50 [1]: 85.9 ± 21.2 nM
Cn1cc(-c2cnc3ccn(S(=O)(=O)c4ccc([N+](=O)[O-])cc4)c3n2)cn1 [Compound 18, 3-(1-Methyl-1H-pyrazol-4-yl)-5-((4-nitrophenyl)sulfonyl)-5H-pyrrolo[2,3-b]pyrazine]	12.8	15.5	17.4	
Cn1cc(-c2cnc3ccn(S(=O)(=O)c4cccc(N)c4)c3n2)cn1 [Compound 19, 3-((3-(1-Methyl-1H-pyrazol-4-yl)-5H-pyrrolo[2,3-b]pyrazin-5-yl)sulfonyl)aniline]	57.5	82.2	34.7	
Cn1cc(-c2cnc3ccn(S(=O)(=O)c4ccc(N)cc4)c3n2)cn1 [Compound 20, 4-((3-(1-Methyl-1H-pyrazol-4-yl)-5H-pyrrolo[2,3-b]pyrazin-5-yl)sulfonyl)aniline]	24.2	42.4	31.8	
CC(=O)Nc1cccc(S(=O)(=O)n2ccc3ncc(-c4cnn(C)c4)nc32)c1 [Compound 21, N-(3-((3-(1-Methyl-1H-pyrazol-4-yl)-5H-pyrrolo[2,3-b]pyrazin-5-yl)sulfonyl)phenyl)acetamide]	50.9	79	44.7	
CCC(=O)Nc1cccc(S(=O)(=O)n2ccc3ncc(-c4cnn(C)c4)nc32)c1 [Compound 22, N-(3-((3-(1-Methyl-1H-pyrazol-4-yl)-5H-pyrrolo[2,3-b]pyrazin-5-yl)sulfonyl)phenyl)propionamide]	17.3	38.7	27.7	
CC(=O)n1cc(-c2cnc3ccn(S(=O)(=O)c4cccc([N+](=O)[O-])c4)c3n2)cn1 [Compound 23, 1-(4-(5-((3-Nitrophenyl)sulfonyl)-5H-pyrrolo[2,3-b]pyrazin-3-yl)-1H-pyrazol-1-yl)ethan-1-one]	58.8		< 40	inhibition at 0.01 µM [1]: 36.5%; FGFR1 Inhibition (%) ([1]; 0.1 μM compound, 0.1 µM): 37.8%
CCC(=O)n1cc(-c2cnc3ccn(S(=O)(=O)c4cccc([N+](=O)[O-])c4)c3n2)cn1 [Compound 24, 1-(4-(5-((3-Nitrophenyl)sulfonyl)-5H-pyrrolo[2,3-b]pyrazin-3-yl)-1H-pyrazol-1-yl)propan-1-one]	60.9		< 40	inhibition at 0.01 µM [1]: 29.3%; FGFR1 Inhibition (%) ([1]; 0.1 μM compound, 0.1 µM): 30.2%
CC(=O)Cn1cc(-c2cnc3ccn(S(=O)(=O)c4cccc([N+](=O)[O-])c4)c3n2)cn1 [Compound 25, 1-(4-(5-((3-Nitrophenyl)sulfonyl)-5H-pyrrolo[2,3-b]pyrazin-3-yl)-1H-pyrazol-1-yl)propan-2-one]	63.4		55.7	inhibition at 0.01 µM [2]: 5.5%; inhibition at 0.1 µM [2]: 5%; inhibition at 1 µM [2]: 14.1%; inhibition at 0.01 µM [1]: 32.8%; IC50 [1]: 45 nM and 45.9 nM
CC(=O)c1ccc(-c2cnc3ccn(S(=O)(=O)c4cccc([N+](=O)[O-])c4)c3n2)cc1 [Compound 26, 1-(4-(5-((3-Nitrophenyl)sulfonyl)-5H-pyrrolo[2,3-b]pyrazin-3-yl)phenyl)ethan-1-one]	57.9		35.7	
O=[N+]([O-])c1cccc(S(=O)(=O)n2ccc3ncc(-c4ccc(CO)cc4)nc32)c1 [Compound 27, (4-(5-((3-Nitrophenyl)sulfonyl)-5H-pyrrolo[2,3-b]pyrazin-3-yl)phenyl)methanol]	75.5		52.2	inhibition at 0.01 µM [2]: 1.1%; inhibition at 0.1 µM [2]: 8.4%; inhibition at 1 µM [2]: 30.1%; IC50 [1]: 113 nM and 114 nM
COc1cccc2cc(-c3cnc4ccn(S(=O)(=O)c5cccc([N+](=O)[O-])c5)c4n3)[nH]c12 [Compound 28, 3-(7-Methoxy-1H-indol-2-yl)-5-((3-nitrophenyl)sulfonyl)-5H-pyrrolo[2,3-b]pyrazine]	62.4		34	inhibition at 0.01 µM [1]: 27.2%
